Values of other authors, collected in publication PMC6154651 (Molecules : A Journal of Synthetic Chemistry and Natural …, 2017).

What was measured:
LCA-induced cholestasis = details: mice, low dose 20 mg/kg
FXR [1] = details: HepG2 cells
obstructive cholestasis = details: bile duct-ligated mice
[2] = test system: FXR-LBD (ligand binding domain)
FXR [3] = test system: FXR; set-up: method as in PMID 16626693

## CC1(C)CC[C@]2(C(=O)O)CC[C@]3(C)C(=CC[C@@H]4[C@@]5(C)CC[C@H](O)C(C)(C)[C@@H]5CC[C@]43C)[C@@H]2C1 [Compound 1, oleanolic acid]
LCA-induced cholestasis
  protection against LCA-induced cholestasis: could protect
FXR [1]; 25 μM
  CDCA induction of bile salt export protein (BSEP): partially blocked
  expression of organic solute transporter (OST-β): did not affect
FXR [1]
  expression levels of cholesterol 7α-hydroxylase (CYP7A1): suppressed
  expression of short heterodimer partner (SHP): slightly enhanced
Obstructive cholestasis
  effect on obstructive cholestasis: attenuate obstructive cholestasis
[2]
  activity of FXR-LBD induced by CDCA: dose-dependently suppressed

## CC1(C)CCC2(C(=O)O)CCC3(C)C(=CCC4C5(C)CCC(OC(=O)c6ccccc6C(=O)O)C(C)(C)C5CCC43C)C2C1 (stereo not drawn) [NPLC441, 3-β-(2-carboxybenzoyloxy)-oleanolic acid]
Retinoid X receptor-LBD
  binding to retinoid X receptor-LBD: bound strongly

## C[C@@H]1O[C@@H](O[C@H]2[C@H](OC(=O)[C@]34CCC(C)(C)C[C@H]3C3=CC[C@@H]5[C@@]6(C)C[C@H](O)[C@H](O[C@@H]7O[C@H](CO)[C@@H](O)[C@H](O)[C@H]7O)C(CO)(CO)[C@@H]6CC[C@@]5(C)[C@]3(C)C[C@H]4O)OC[C@H](O)[C@@H]2O)[C@H](O)[C@H](O)[C@H]1O[C@@H]1OC[C@@H](O)[C@H](O[C@@H]2OC[C@](O)(CO)[C@H]2O)[C@H]1O [platycodin D]
FXR [3]
  activity on FXR: weak activity
